Structures can show the parent of a compound that is named as a salt.
| SMILES | melting point |
| --- | --- |
| COc1cc(C2c3cc4c(cc3[C@@H](NC(=O)CNCCCCNCCCCNCCCCN)[C@H]3COC(=O)C23)OCO4)cc(OC)c1O (some centres unmarked) (as salt: hydrochloride) | 263 °C |
| COc1cc(C2c3cc4c(cc3[C@@H](NC(=O)CNCCCCNCCCN)[C@H]3COC(=O)C23)OCO4)cc(OC)c1O (some centres unmarked) (as salt: hydrochloride) | 197 °C |

— patent US8664409B2, “Process for the preparation of (poly) aminoalkylaminoacetamide derivatives of epipodophyllotoxin useful for their applications in therapeutics as anticancer agent” (Pierre Fabre Medicament, priority 2007, dated 2014)
